# Values of other authors, collected in US10022338B2, “Honey bee mite disruptive compounds and methods of application” (SIMON FRASER UNIVERSITY, priority 2014, dated 2018).
# System: olfactory sensory organ on the Varroa foreleg
# Details: separate study
compound,measurement,setting,value
"CCN(CC)C(=O)c1cccc(C)c1 [DEET, 3-methyl-N,N-diethylbenzamide]",long-term inhibition of Varroa's response to bee headspace,high dose,long-term inhibit
same,short-term inhibition of Varroa's response to bee headspace,,not significant
